Measurements taken from patent publication US20150273088A1 (Board of Regents, The University of Texas System, priority 2014, published 2015).

Assays:
[1] = molecular target: T1, purified, full length, human GLS1 (Homo sapiens, UniProt O94925); assay: Glutaminase assay (two-step, purified enzyme); assay type: biochemical
T1 construct: 6xHis (N); made in house; host or cells: E. coli BL-21
T1 sequence (O94925 55-669): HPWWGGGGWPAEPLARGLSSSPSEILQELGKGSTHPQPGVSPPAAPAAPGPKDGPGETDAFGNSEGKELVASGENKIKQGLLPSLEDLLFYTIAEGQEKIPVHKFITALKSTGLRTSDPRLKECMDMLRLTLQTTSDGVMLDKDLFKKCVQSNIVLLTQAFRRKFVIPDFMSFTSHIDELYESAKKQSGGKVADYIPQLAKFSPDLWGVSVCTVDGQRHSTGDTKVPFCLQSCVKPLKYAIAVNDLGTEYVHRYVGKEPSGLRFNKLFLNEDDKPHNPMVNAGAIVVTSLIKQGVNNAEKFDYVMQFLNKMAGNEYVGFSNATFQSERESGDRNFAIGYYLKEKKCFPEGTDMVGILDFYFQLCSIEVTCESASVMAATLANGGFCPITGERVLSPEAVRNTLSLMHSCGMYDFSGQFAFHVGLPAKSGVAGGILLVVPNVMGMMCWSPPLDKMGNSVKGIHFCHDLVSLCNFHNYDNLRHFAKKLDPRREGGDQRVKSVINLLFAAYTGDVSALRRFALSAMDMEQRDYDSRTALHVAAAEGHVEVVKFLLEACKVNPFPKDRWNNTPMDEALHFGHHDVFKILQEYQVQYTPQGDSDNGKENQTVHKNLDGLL
Protocol: Glutaminase assay. N-terminal 6×-His tagged GLS1 was expressed and purified from chemically competent BL-21 E. coli using Ni-NTA agarose beads (Qiagen). Purified protein was then dialyzed in a 50 mM Tris-phosphate buffer containing 1 mM dithiothreitol at 4° C. overnight. A previously described two-step assay was used to measure glutaminase activity (Kenny et al., 2003). […] […] […] For the second step of the assay, 20 μL of completed and quenched initial reaction were transferred to a new plate and 200 μL of secondary reaction mix containing 0.4 mg bovine liver glutamate dehydrogenase (Sigma-Aldrich), 0.09 M Tris-acetate (pH 9.4), 0.2 M hydrazine, 0.25 mM ADP, and 2 mM NAD was added. Samples were incubated for 40 minutes at room temperature and absorbance of NADH (340 nm) was measured using a microplate spectrophotometer.

[2] = tested on: PDAC cells Panc1 and MiaPaca2; assay: ROS quantification (DCFDA); assay type: cell-based; settings: 48 hours
Protocol: ROS quantification. Reactive oxygen species levels in PDAC cells were quantified using 2,7-dichlorofluorescein diacetate (DCFDA). Following 48 hours of drug treatment in a 96-well plate, cells were washed with PBS, stained for 30 minutes at 37° C. with 20 μM DCFDA, and imaged using an InCell Analyzer 1000. A 10× objective was used to collect 16 fluorescent and bright field images per well with a 10% overlap to allow image stitching. Stained cells were then quantified using the GE InCell Investigator software package with Developer Toolbox.

[3] = tested on: PDAC cells Panc1 and MiaPaca2; assay: GC-MS of glutamine, glutamate and αKG in PDAC cells; assay type: cell-based; settings: 300 μM, 48 hours
Protocol: GC-MS analysis. Metabolite extraction from cultured cells was performed as described previously by Figueroa et al. (2010). Briefly, cells were rinsed in ice cold PBS and rapidly quenched with 80% methanol spiked with 3-hydroxy-1,5-pentanedioic-2,2,3,4,4-d5 acid (CDN Isotopes, Quebec Canada) as an internal standard. Extracts were then incubated at −80° C. for 20 minutes, sonicated on ice, centrifuged at 14,000×g for 20 minutes at 4° C. to clear precipitate proteins, and supernatants transferred to vials for drying under N2. Derivatizing reagent (MSTFA (N-methyl-N-(trimethylsilyl)trifluoroacetamide):pyridine:acetonitrile 1:1:2) was added to the vials, which were then heated at 70° C. for 15 minutes.
Derivatized samples were analyzed on an Agilent 7890A gas chromatograph interfaced to an Agilent 5975C mass spectrometer. The GC column used for the study was a HP-5MS (30 m, 0.25 mm i.d., 0.25 μm film coating). A linear temperature gradient was used. The initial temperature of 80° C. was held for 2 minute and increased to 300° C. at 10° C./minute. The temperature was held at 300° C. for 2 minutes. The samples were run by electron ionization (EI) and the source temperature, electron energy, and emission current were 200° C., 70 eV, and 300 μA, respectively. The injector and transfer line temperatures were 250° C. 3-Hydroxy-1,5-pentanedioic-2,2,3,4,4-d5 acid was used as the internal standard in SIM mode for quantitation of 2-hydroxyglutaric acid. Quantitation was carried out by monitoring the ions at m/z 347 (glutamine and αKG), 348 (glutamate), 349 (2-hydroxyglutaric acid), and 354 (3-hydroxy-1,5-pentanedioic-2,2,3,4,4-d5).

CCCOc1ccccc1-c1nc2nn[nH]c2c(=O)[nH]1 [Zaprinast, 5-(2-propoxyphenyl)-1H-[1,2,3]triazolo[4,5-d]pyrimidin-7(4H)-one]
Mode of GLS1 inhibition ([1]; Lineweaver-Burk, with respect to glutamine): noncompetitive inhibitor
IC50 ([1]; purified human GLS1, read-out: IC50, enzymatic activity of GLS1): ~200 µM
Ki ([1]; read-out: Ki, GLS1 kinetic analysis): 220 µM
Reactive oxygen species (DCFDA-positive cells) [2]: increase in reactive oxygen species (ROS) in a concentration-dependent manner
Cellular glutamine [3]: increase
Cellular pool of glutamate [3]: significant reductions
Cellular pool of αKG [3]: significant reductions
